Measurements reported in patent EP0338092A1, “ANTI-HIV AGENT” (Chugai Seiyaku Kabushiki Kaisha, priority 1987, dated 1989).

Test system: HIV
Test: Detection of viral antigen (indirect fluorescent antibody technique) in HIV-infected Molt-4 clone No. 8 cells
Format: cell-based
Method: The sodium salts of oligosaccharide poly-sulfate esters prepared in Preparation Examples 1 - 3 and 5 - 7 were used as test samples. Molt-4 clone No. 8 cells were infected with a virus obtained from Molt-4/HIV producing cell.
The experiment was conducted in accordance with the method of Itoh et al. described in Antiviral Research, 7 (1987), 361 - 367.
The proportions of HIV antigen positive cells were determined by an indirect fluorescent antibody technique using an anti-HIV antibody positive serum as antibody against the infected cells. The results are shown in Tables 2 and 3, in which each of the figure listed denotes the percentage of infected cells taken by HIV antigen positive cells.

[1] = Table 3, amount of sample added 7.8 µg/ml
[2] = Table 3, amount of sample added 32 µg/ml
[3] = Table 3, amount of sample added 125 µg/ml
[4] = Table 3, amount of sample added 500 µg/ml
[5] = Table 3, amount of sample added 1000 µg/ml

With “sodium salt of maltohexaose sulfate ester [compound 5]” the “percentage of infected cells taken by HIV antigen positive cells” value (“percentage of infected cells taken” below) [1] was 20.3%, the “percentage of infected cells taken” value [2] was 5.3% and the “percentage of infected cells taken” value [3] was 5.8%. The “percentage of infected cells taken” value [4] was 3.6% and the “percentage of infected cells taken” value [5] was 4.4%.

With “sodium salt of maltopentaose sulfate ester [compound 6]” the “percentage of infected cells taken” value [1] was 24.1%, the “percentage of infected cells taken” value [2] was 6.4% and the “percentage of infected cells taken” value [3] was 6.0%. For the same substance, the “percentage of infected cells taken” value [4] was 4.4% and the “percentage of infected cells taken” value [5] was 4.6%.

In the case of “sodium salt of maltoheptaose sulfate ester [compound 7]”, the “percentage of infected cells taken” value [1] is reported as 18.2%, the “percentage of infected cells taken” value [2] is reported as 4.8% and the “percentage of infected cells taken” value [3] is reported as 4.4%. The “percentage of infected cells taken” value [4] was 4.1% and the “percentage of infected cells taken” value [5] was 3.2%.
